In brackets after ≈: the same amount, converted by molar mass.
Key:
[1] = tested on: E. coli CCARM 1A020(Kan^S); test: MIC by broth microdilution (CLSI), antibacterial spectra; format: cell-based, Escherichia coli
Description: (§1) In one embodiment of the present invention, antibacterial spectra against kanamycin intermediates and analogs produced by the present invention were measured. Typical gram-negative strains (E. coli and Pseudomonas aeruginosa) and four clinically isolated strains were employed to check the antibacterial spectra (See table 2).
(§2) To check the antibacterial spectra of kanamycin biosynthetic intermediates and their analogs, a total six kinds of Gram-negative bacteria such as kanamycin-sensitive (Kan^S) E. coli ATCC 25922, kanamycin-resistant (Kan^R) Pseudomonas aeruginosa ATCC 27853, Kan^S E. coli CCARM (Culture Collection of Antimicrobial Resistant Microbes, Korea) 1A020, Kan^R E. coli CCARM 1A023, amikacin-sensitive (Amk^S) P. aeruginosa CCARM 2206, and amikacin-resistance (Amk^R) P. aeruginosa CCARM 2178 were used.
(§3) Minimum inhibitory concentrations (MICs) of various kanamycin-related pseudodi- and tri-saccharides and AHBA conjugated kanamycin analogs (except for compounds 16, 18, 19, and 20) were measured by broth microdilution according to the Clinical and Laboratory Standard Institute (CLSI, formerly NCCLS). As described in Example 2, gram-negative E. coli strains, P. aeruginosa strains, and clinically isolated strains were incubated in Mueller-Hinton broth (BD Science) at 30° C. […] An aliquot of water was used as a negative control group. The growth of the strains was observed using the Labsystems Bioscreen C, and the minimum concentrations of the aminoglycoside diluted in the broth medium to inhibit the growth of the bacterial strains were measured.

[2] = tested on: E. coli CCARM 1A023(Kan^R); test: as above; format: cell-based, Escherichia coli
Description: as §1, §2, §3

[3] = tested on: P. aeruginosa ATCC 27853(Kan^R); test: microbe, parasite or virus in culture; format: cell-based; settings: Pseudomonas aeruginosa, ATCC27853
Description: as §1, §2, §3

[4] = tested on: P. aeruginosa CCARM 2178(Amk^R); test: MIC by broth microdilution (CLSI), antibacterial spectra; format: cell-based, Pseudomonas aeruginosa
Description: as §1, §2, §3

[5] = tested on: P. aeruginosa CCARM 2206(Amk^S); test: as above; format: cell-based, Pseudomonas aeruginosa
Description: as §1, §2, §3

[6] = tested on: E. coli ATCC 25922(Kan^S); test: microbe, parasite or virus in culture; format: cell-based, Escherichia coli
Description: as §1, §2, §3

[7] = tested on: Gram-negative bacteria (E. coli and Pseudomonas aeruginosa test strains); test: Antibacterial spectra, comparison across test strains; format: cell-based; settings: for antibacterial activity, 3″-amino vs 3″-hydroxy derivatives: against the test strains, compared with corresponding 3″-hydroxy derivatives 5, 13, 14 and 11; for antibacterial activity, 6′-amino vs 6′-hydroxy pseudotrisaccharides: against kanamycin-sensitive test strains, compared with compounds 6 and 12
Description: as §1, §2, §3

[8] = Pseudomonas aeruginosa, CCARM2178
[9] = Pseudomonas aeruginosa, CCARM2206
[10] = E. coli CCARM 1A020, kanamycin-sensitive clinically isolated strain
[11] = E. coli CCARM 1A023, kanamycin-resistant clinically isolated strain
[12] = P. aeruginosa CCARM 2178, amikacin-resistant clinically isolated strain
[13] = P. aeruginosa CCARM 2206, amikacin-sensitive clinically isolated strain
[14] = E. coli ATCC 25922, kanamycin-sensitive typical strain

SMILES	MIC ([1]; Escherichia coli) [µg/mL]	MIC ([2]; Escherichia coli) [µg/mL]	MIC [3] [µg/mL]	MIC [4, 8] [µg/mL]	MIC [5, 9] [µg/mL]	MIC ([6]; Escherichia coli, ATCC25922) [µg/mL]	antibacterial activity, 6′-amino vs 6′-hydroxy pseudodisaccharides ([7]; against kanamycin-sensitive E. coli strains, compared with 6′-hydroxy derivatives 3 and 9)	MIC [1, 10]	MIC [2, 11]	MIC [4, 12]	MIC [5, 13]	MIC [6, 14] [µg/mL]	antibacterial activity, 3″-amino vs 3″-hydroxy derivatives [7]	antibacterial activity, 6′-amino vs 6′-hydroxy pseudotrisaccharides [7]
N[C@H]1[C@@H](O[C@H]2[C@H](O)[C@@H](O)[C@H](N)C[C@@H]2N)O[C@H](CO)[C@@H](O)[C@@H]1O [Compound 3, paromamine]	128 (≈ 396 µM)	> 128	> 128	> 128	> 128	128 (≈ 396 µM)	–	–	–	–	–	–	–	–
NC[C@H]1O[C@H](O[C@H]2[C@H](O)[C@@H](O)[C@H](N)C[C@@H]2N)[C@H](N)[C@@H](O)[C@@H]1O [Compound 4, neamine]	64 (≈ 199 µM)	> 128	> 128	> 128	128 (≈ 397 µM)	64 (≈ 199 µM)	more active	–	–	–	–	–	–	–
N[C@H]1[C@@H](O[C@H]2[C@H](O)[C@@H](O[C@H]3O[C@H](CO)[C@@H](O)[C@H](O)[C@H]3O)[C@H](N)C[C@@H]2N)O[C@H](CO)[C@@H](O)[C@@H]1O [Compound 5, 3″-deamino-3″-hydroxykanamycin C]	–	–	–	–	–	–	–	NA (NA represents no activity at 128 μg/mL)	NA (NA represents no activity at 128 μg/mL)	NA (NA represents no activity at 128 μg/mL)	NA (NA represents no activity at 128 μg/mL)	128 (≈ 264 µM)	–	–
N[C@@H]1[C@@H](O)[C@@H](O[C@@H]2[C@@H](O)[C@H](O[C@H]3O[C@H](CO)[C@@H](O)[C@H](O)[C@H]3N)[C@@H](N)C[C@H]2N)O[C@H](CO)[C@H]1O [Compound 6, kanamycin C]	–	–	–	–	–	–	–	16 µg/mL (≈ 33 µM)	NA (NA represents no activity at 128 μg/mL)	NA (NA represents no activity at 128 μg/mL)	64 µg/mL (≈ 132 µM)	16 (≈ 33 µM)	increased activity	–
NC[C@H]1O[C@H](O[C@H]2[C@H](O)[C@@H](O[C@H]3O[C@H](CO)[C@@H](O)[C@H](N)[C@H]3O)[C@H](N)C[C@@H]2N)[C@H](N)[C@@H](O)[C@@H]1O [Compound 7, kanamycin B, reference compound]	–	–	–	–	–	–	–	4 µg/mL (≈ 8.27 µM)	NA (NA represents no activity at 128 μg/mL)	NA (NA represents no activity at 128 μg/mL)	32 µg/mL (≈ 66.2 µM)	2 (≈ 4.14 µM)	increased activity	more active
NC[C@@H]1O[C@@H](O[C@H]2[C@H](O)[C@@H](O[C@H]3O[C@H](CO)[C@@H](O)[C@H](N)[C@H]3O)[C@H](N)C[C@@H]2N)[C@@H](O)[C@H](O)[C@H]1O [Compound 8, kanamycin A, reference compound]	–	–	–	–	–	–	–	4 µg/mL (≈ 8.26 µM)	NA (NA represents no activity at 128 μg/mL)	NA (NA represents no activity at 128 μg/mL)	16 µg/mL (≈ 33 µM)	2 (≈ 4.13 µM)	increased activity	more active
NC1CC(N)C(OC2OC(CO)C(O)C(O)C2O)C(O)C1O (stereo not drawn) [Compound 9, 2′-deamino-2′-hydroxyparomamine]	–	–	–	–	–	–	–	128 µg/mL (≈ 395 µM)	NA (NA represents no activity at 128 μg/mL)	NA (NA represents no activity at 128 μg/mL)	NA (NA represents no activity at 128 μg/mL)	–	–	–

Reference: patent US9133492B2, “Kanamycin compound, kanamycin-producing Streptomyces species bacterium, and method of producing kanamycin” (iNtRON Biotechnology, Inc., priority 2010, dated 2015)
